According to patent US20200390899A1, “AMINOBENZAZEPINE COMPOUNDS, IMMUNOCONJUGATES, AND USES THEREOF” (BOLT BIOTHERAPEUTICS, INC., priority 2019, published 2020):
pEC50: −log10 of the molar value. Read-outs that look alike come from different tables or passages of the source.

Key:
human TLR7 = target: T1, human TLR7 (Homo sapiens, UniProt Q9NYK1); experiment: HEK293 NFKB reporter assay, human TLR7; type: cell-based; settings: HEK293 reporter cells expressing human TLR7, read-out: HEK293 hTLR7 EC50
T1 construct: host or cells: HEK293 reporter cells
T1 sequence (Q9NYK1 27-1049): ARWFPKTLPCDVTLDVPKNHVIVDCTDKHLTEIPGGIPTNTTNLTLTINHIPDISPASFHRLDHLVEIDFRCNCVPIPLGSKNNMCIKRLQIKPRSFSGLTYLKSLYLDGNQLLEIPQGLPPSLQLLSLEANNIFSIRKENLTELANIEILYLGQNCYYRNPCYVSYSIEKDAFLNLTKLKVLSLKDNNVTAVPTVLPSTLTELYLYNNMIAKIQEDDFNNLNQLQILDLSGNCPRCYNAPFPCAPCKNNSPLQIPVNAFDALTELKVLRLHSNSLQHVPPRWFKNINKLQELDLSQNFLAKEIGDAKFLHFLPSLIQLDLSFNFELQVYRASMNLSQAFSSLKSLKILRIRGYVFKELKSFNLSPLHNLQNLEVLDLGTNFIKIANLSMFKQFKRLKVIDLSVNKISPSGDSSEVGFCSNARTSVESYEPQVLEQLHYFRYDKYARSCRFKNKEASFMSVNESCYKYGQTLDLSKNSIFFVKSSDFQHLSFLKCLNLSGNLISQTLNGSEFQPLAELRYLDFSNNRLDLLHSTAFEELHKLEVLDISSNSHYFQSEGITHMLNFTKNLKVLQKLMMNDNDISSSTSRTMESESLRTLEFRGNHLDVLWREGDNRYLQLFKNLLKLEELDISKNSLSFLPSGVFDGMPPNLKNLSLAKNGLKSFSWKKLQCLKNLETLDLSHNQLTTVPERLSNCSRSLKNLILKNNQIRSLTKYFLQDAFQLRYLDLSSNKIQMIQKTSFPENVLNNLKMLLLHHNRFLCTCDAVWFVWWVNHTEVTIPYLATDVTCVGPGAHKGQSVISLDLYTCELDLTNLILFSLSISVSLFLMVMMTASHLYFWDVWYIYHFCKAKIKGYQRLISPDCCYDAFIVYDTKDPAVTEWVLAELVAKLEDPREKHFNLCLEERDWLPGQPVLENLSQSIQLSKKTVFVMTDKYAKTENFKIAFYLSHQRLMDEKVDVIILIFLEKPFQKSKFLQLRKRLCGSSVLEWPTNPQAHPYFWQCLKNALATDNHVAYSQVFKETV
Experimental: (§1) Each compound was synthesized and purified by the methods in the Examples provided herein, characterized by mass spectrometry, and shown to have the mass indicated. Activity against HEK293 NFKB reporter cells expressing human TLR7 or human TLR8 was measured according to Example 68.
(§2) HEK293 reporter cells expressing human TLR7 or human TLR8 were purchased from Invivogen and vendor protocols were followed for cellular propagation and experimentation. Briefly, cells were grown to 80-85% confluence at 5% CO2 in DMEM supplemented with 10% FBS, Zeocin, and Blasticidin. Cells were then seeded in 96-well flat plates at 4×10^4cells/well with substrate containing HEK detection medium and immunostimulatory molecules. Activity was measured using a plate reader at 620-655 nm wavelength.

human TLR8 = target: T2, human TLR8 (Homo sapiens, UniProt Q9NR97); experiment: HEK293 NFKB reporter assay, human TLR8; type: cell-based; settings: HEK293 reporter cells expressing human TLR8, read-out: HEK293 hTLR8 EC50
T2 construct: host or cells: HEK293 reporter cells
T2 sequence (Q9NR97 27-1041): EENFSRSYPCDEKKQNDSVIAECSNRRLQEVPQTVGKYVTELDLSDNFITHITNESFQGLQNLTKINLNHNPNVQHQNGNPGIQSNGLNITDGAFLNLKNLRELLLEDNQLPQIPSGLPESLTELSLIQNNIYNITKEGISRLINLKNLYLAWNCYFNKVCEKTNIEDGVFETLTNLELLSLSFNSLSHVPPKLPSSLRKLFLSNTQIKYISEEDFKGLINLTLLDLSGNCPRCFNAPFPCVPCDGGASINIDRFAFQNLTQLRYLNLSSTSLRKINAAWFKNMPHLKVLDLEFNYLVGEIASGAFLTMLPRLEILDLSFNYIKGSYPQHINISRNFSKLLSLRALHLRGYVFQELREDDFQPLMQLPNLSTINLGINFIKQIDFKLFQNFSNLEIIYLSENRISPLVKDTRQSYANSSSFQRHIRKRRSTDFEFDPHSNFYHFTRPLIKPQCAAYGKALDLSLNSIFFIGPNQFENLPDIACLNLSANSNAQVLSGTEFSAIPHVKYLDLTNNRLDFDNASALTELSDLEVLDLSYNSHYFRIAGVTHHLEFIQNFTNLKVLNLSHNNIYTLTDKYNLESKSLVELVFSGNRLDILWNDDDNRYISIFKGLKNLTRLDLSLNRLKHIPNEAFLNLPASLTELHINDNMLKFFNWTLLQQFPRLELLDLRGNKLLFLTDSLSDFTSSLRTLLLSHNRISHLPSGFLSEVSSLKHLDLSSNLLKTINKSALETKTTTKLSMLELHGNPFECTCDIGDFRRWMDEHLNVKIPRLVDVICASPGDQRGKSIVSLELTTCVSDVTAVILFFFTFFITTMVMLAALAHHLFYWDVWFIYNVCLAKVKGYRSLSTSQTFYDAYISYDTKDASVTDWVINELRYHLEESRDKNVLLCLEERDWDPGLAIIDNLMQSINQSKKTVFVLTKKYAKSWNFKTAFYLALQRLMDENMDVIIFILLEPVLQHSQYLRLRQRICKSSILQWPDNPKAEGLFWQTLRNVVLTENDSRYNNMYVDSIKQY
Experimental: as §1, §2

Row | pEC50 (human TLR7; Table 1a) | pEC50 (human TLR8; Table 1a) | pEC50 (human TLR8; Table 1c) | other results | SMILES
1 | 6.24 | 6.97 | – | – | CCCN(CCCNC(=O)OC(C)(C)C)C(=O)C1=Cc2ccc(-c3cccc(S(=O)(=O)N4CC(CO)C4)c3)cc2N=C(N)C1 [Bz-1, tert-butyl N-[3-[[2-amino-8-[3-[3-(hydroxymethyl)azetidin-1-yl]sulfonylphenyl]-3H-1-benzazepine-4-carbonyl]-propyl-amino]propyl]carbamate]
2 | < 5.05 | 5.01 | – | – | CCCN(CCC)C(=O)C1=Cc2ccc(-c3ccc(CN)c(S(=O)(=O)N4CC(CO)C4)c3)cc2N=C(N)C1 [Bz-2]
3 | 6.26 | 5.37 | – | – | CCCN(CCCN(C)C(=O)OC(C)(C)C)C(=O)C1=Cc2ccc(-c3cccc(S(=O)(=O)N4CC(CO)C4)c3)cc2N=C(N)C1 [Bz-3, tert-butyl (3-(2-amino-8-(3-((3-(hydroxymethyl)azetidin-1-yl)sulfonyl)phenyl)-N-propyl-3H-benzo[b]azepine-4-carboxamido)propyl)(methyl)carbamate]
4 | 5.83 | 5.77 | – | – | CCCN(CCCNC(=O)OC(C)(C)C)C(=O)C1=Cc2ccc(-c3ccc(C(=O)N4CCCC4)cc3)cc2N=C(N)C1 [Bz-4]
5 | 6.81 | 6.59 | – | – | CCCN(CCC)C(=O)C1=Cc2c(CCCCNC(=O)OC(C)(C)C)cc(-c3cccc(S(=O)(=O)N4CC(CO)C4)c3)cc2N=C(N)C1 [Bz-5, tert-butyl (4-(2-amino-4-(dipropylcarbamoyl)-8-(3-((3-(hydroxymethyl)azetidin-1-yl)sulfonyl)phenyl)-3H-benzo[b]azepin-6-yl)butyl)carbamate]
6 | < 5.05 | 6.58 | – | – | CCCN(CCC)C(=O)C1=Cc2ccc(-c3cccc(S(=O)(=O)N4CC(CNC(=O)OC(C)(C)C)C4)c3)cc2N=C(N)C1 [Bz-6, tert-butyl ((1-((3-(2-amino-4-(dipropylcarbamoyl)-3H-benzo[b]azepin-8-yl)phenyl)sulfonyl)azetidin-3-yl)methyl)carbamate]
7 | < 5.05 | 8.37 | – | – | CCCN(CCC)C(=O)C1=Cc2ccc(C(=O)Nc3cncc(CNC(=O)OC(C)(C)C)c3)cc2N=C(N)C1 [Bz-7]
8 | 5.47 | < 5.05 | – | – | CCCN(CCCN(C)C(=O)OC(C)(C)C)C(=O)C1=Cc2ccc(-c3ccc(C(=O)N4CCCC4)cc3)cc2N=C(N)C1 [Bz-8]
9 | 5.06 | 6.20 | – | – | CCCN(CCCCCNC(=O)OC(C)(C)C)C(=O)C1=Cc2ccc(-c3cccc(S(=O)(=O)N4CC(CO)C4)c3)cc2N=C(N)C1 [Bz-9, tert-butyl N-[5-[[2-amino-8-[3-[3-(hydroxymethyl)azetidin-1-yl]sulfonylphenyl]-3H-1-benzazepine-4-carbonyl]-propyl-amino]pentyl]carbamate]
10 | < 5.05 | < 5.05 | – | – | CCCN(CCNC(=O)OC(C)(C)C)C(=O)C1=Cc2ccc(-c3cccc(S(=O)(=O)N4CC(CO)C4)c3)cc2N=C(N)C1 [Bz-10, tert-butyl (2-(2-amino-8-(3-((3-(hydroxymethyl)azetidin-1-yl)sulfonyl)phenyl)-N-propyl-3H-benzo[b]azepine-4-carboxamido)ethyl)carbamate]
11 | 5.11 | 5.86 | – | – | CCCN(CCCNC(=O)NC(C)(C)C)C(=O)C1=Cc2ccc(-c3cccc(S(=O)(=O)N4CC(CO)C4)c3)cc2N=C(N)C1 [Bz-11, 2-amino-N-[3-(tert-butylcarbamoylamino)propyl]-8-[3-[3-(hydroxymethyl)azetidin-1-yl]sulfonylphenyl]-N-propyl-3H-1-benzazepine-4-carboxamide]
12 | 5.60 | 5.62 | – | – | CCCN(CCCNC(=O)Nc1cccc(C#N)c1)C(=O)C1=Cc2ccc(-c3cccc(S(=O)(=O)N4CC(CO)C4)c3)cc2N=C(N)C1 [Bz-12, 2-amino-N-[3-[(3-cyanophenyl)carbamoylamino]propyl]-8-[3-[3-(hydroxymethyl)azetidin-1-yl]sulfonylphenyl]-N-propyl-3H-1-benzazepine-4-carboxamide]
13 | – | – | – | pEC50 (human TLR7; Table 1b): < 5.05 | CCCN(Cc1ccc(CN2CCN(C(=O)OC(C)(C)C)CC2)cc1)C(=O)C1=Cc2ccc(-c3cccc(S(=O)(=O)N4CC(CO)C4)c3)cc2N=C(N)C1 [Bz-30, tert-butyl 4-[[4-[[[2-amino-8-[3-[3-(hydroxymethyl)azetidin-1-yl]sulfonylphenyl]-3H-1-benzazepine-4-carbonyl]-propyl-amino]methyl]phenyl]methyl]piperazine-1-carboxylate]
14 | – | – | – | pEC50 (human TLR7; Table 1c): ≤ 5.05 | CCCN(Cc1ccc(CN2CCN(C(=O)OC(C)(C)C)CC2)cc1)C(=O)C1=Cc2ccc(-c3cccc(S(=O)(=O)N4CC(CO)C4)c3)cc2N=C(N)C1 [Bz-44]
15 | – | – | 6.46 | – | CCCN(CCC)C(=O)C1=Cc2ccc(-c3c(C)n[nH]c3C)cc2N=C(N)C1 [Bz-45]
16 | – | – | 6.30 | – | CCCN(CCC)C(=O)C1=Cc2ccc(-c3c(C)nn(S(=O)(=O)N4CC(CO)C4)c3C)cc2N=C(N)C1 [Bz-48]
17 | – | – | 5.88 | – | CCCN(CCC)C(=O)C1=Cc2ccc(-c3cccc(S(=O)(=O)N4CC5(CNC5)C4)c3)cc2N=C(N)C1 [Bz-52]
18 | – | – | 6.60 | – | CCCN(CCC)C(=O)C1=Cc2ccc(-c3cccc(S(=O)(=O)N4CC5(CCNC5)C4)c3)cc2N=C(N)C1 [Bz-53]
19 | – | – | 6.70 | – | CCCN(CCC)C(=O)C1=Cc2ccc(-c3cccc(S(=O)(=O)N4CCC(N)CC4)c3)cc2N=C(N)C1 [Bz-54]
20 | – | – | 6.95 | – | CCCN(CCC)C(=O)C1=Cc2ccc(-c3cccc(S(=O)(=O)N4[C@@H]5CNC[C@@H]54)c3)cc2N=C(N)C1 (stereo partly drawn) [Bz-56]
21 | – | – | 6.13 | – | CCCN(CCC)C(=O)C1=Cc2ccc(-c3cccc(S(=O)(=O)N4CCC5(CCNC5)C4)c3)cc2N=C(N)C1 (stereo not drawn) [Bz-57]
22 | – | – | 6.06 | – | CCCN(Cc1ccc(CN)cc1)C(=O)C1=Cc2ccccc2N=C(N)C1 [Bz-59]
23 | – | – | 6.54 | – | CCCN(CCOC)C(=O)C1=Cc2ccc(-c3cccc(S(=O)(=O)N4CC(CO)C4)c3)cc2N=C(N)C1 [Bz-60]
24 | – | – | 5.56 | – | CCCN(NCC)C(=O)C1=Cc2ccc(-c3cccc(S(=O)(=O)N4CC(CO)C4)c3)cc2N=C(N)C1 [Bz-71]
25 | – | – | 5.37 | – | CCCNN(CC)C(=O)C1=Cc2ccc(-c3cccc(S(=O)(=O)N4CC(CO)C4)c3)cc2N=C(N)C1 [Bz-72]
26 | – | – | 5.59 | – | CCCN(CCC)C(=O)C1=Cc2ccc(CCCCCN)cc2N=C(N)C1 [Bz-74]
27 | – | – | 6.61 | – | CCCN(CCC(F)(F)F)C(=O)C1=Cc2ccc(C(=O)Nc3ccccc3)cc2N=C(N)C1 [Bz-75]
